ChEMBL document CHEMBL4806962, “Methods and Compositions for Treating Cancer” (2020)
The source made the active and inactive calls. No cut-off for these calls is given here.

Experiments:
[1] = system: PBMC; test: Effect of compound on human PBMCs assessed as reduction in TGIT expression in CD8-positive T cells after 1 day by flow cytometric analysis; assay type: functional, cell-based; conditions: dose 1.25-5 µM
[2] = Effects of compound on anti-CD3/CD28-stimulated human PBMCs assessed as CD4-positive cells population at 10 uM after 4 hrs by flow cytometric analysis; assay type: functional, PBMC
[3] = molecular target: T1, Probable G-protein coupled receptor 174 (Homo sapiens, UniProt Q9BXC1); test: Antagonist activity at GPR174 (unknown origin) expressed in HEK293 cells assessed as inhibition of PS-induced GPR174 signaling incubated for 15 mins by GloSensor assay; assay type: functional, cell-based; conditions: filed as antagonist
T1 sequence (Q9BXC1 whole entry): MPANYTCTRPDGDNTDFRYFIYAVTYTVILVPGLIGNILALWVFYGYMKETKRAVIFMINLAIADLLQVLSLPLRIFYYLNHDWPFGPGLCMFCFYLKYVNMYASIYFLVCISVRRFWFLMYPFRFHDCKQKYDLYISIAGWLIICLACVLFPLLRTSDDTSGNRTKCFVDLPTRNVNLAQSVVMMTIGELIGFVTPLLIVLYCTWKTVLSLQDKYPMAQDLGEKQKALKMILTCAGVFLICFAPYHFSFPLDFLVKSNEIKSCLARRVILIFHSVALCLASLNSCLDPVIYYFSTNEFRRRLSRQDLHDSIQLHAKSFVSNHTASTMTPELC

[4] = Ratio of FC for induction of IL-2 production in anti-CD3/CD28-stimulated human PBMCs at 1 uM after 24 hrs in presence of ZM-241385 and MRS-1754 to FC for induction of IL-2 production in anti-CD3/CD28-stimulated human PBMCs at 1 uM after 24 hrs in presence of ZM-241385 and absence of MRS-1754; assay type: functional, PBMC
[5] = molecular target: T1, Probable G-protein coupled receptor 174; test: Inverse agonist activity at human GPR174 assessed as fold decrease in Gs signalling activity by CRA; assay type: functional; conditions: filed as inverse agonist
[6] = Effects of compound on anti-CD3/CD28-stimulated human PBMCs assessed as CD8-positive cells population at 10 uM after 2 days by flow cytometric analysis; assay type: functional, PBMC; conditions: time 2 day
[7] = system: PBMC; test: Effects of compound on INF-gamma production in anti-CD3/CD28-stimulated human PBMCs assessed as increase in INF-gamma level after 2 days by ELISA; assay type: functional, tissue-based; conditions: dose 1-10 µM, time 2.0 day
[8] = system: PBMC; test: Effects of compound on IL-2 production in anti-CD3/CD28-stimulated human PBMCs assessed as increase in IL-2 level after 3 days by ELISA; assay type: functional, tissue-based; conditions: dose 3-60 µM, time 3.0 day
[9] = molecular target: T1, Probable G-protein coupled receptor 174; test: Inverse agonist activity at GPR174 in anti-CD3/CD28-stimulated human PBMCs assessed as reduction in FoxP3-positive Helios-positive nTreg cells at 30 uM after 7 days by flow cytometric analysis; assay type: functional, tissue-based; conditions: PBMC, filed as inverse agonist, time 7.0 day
[10] = system: Splenocyte; test: Effects of compound on IL-2 production in anti-CD3/CD28-stimulated wild type mouse splenocytes assessed as increase in IL-2 levels at 10 uM after 48 hrs; assay type: functional, cell-based

Activity [3]: Dose-Dependent Effect
fold change (FC) [5]: 0.2
Activity [9]: Active
Structure (SMILES): CC1CCN(c2cc(N3CCN(S(=O)(=O)c4ccccc4)CC3)c([N+](=O)[O-])cc2F)CC1
Activity [1]: Dose-Dependent Effect
Activity [2]: 46.2%
Ratio [4]: 0.7
Activity [6]: 27.5%
Activity [7]: Dose-Dependent Effect
Activity [8]: Dose-Dependent Effect
Activity [10]: Active
